Calls of active or inactive are those of the source. No cut-off for these calls is given here.
Experiments:
[1] = Cytotoxicity in HEK293FT cells co-expressing mouse GOAT and pre-proghrelin assessed as reduction in cell viability incubated for 24 hrs by alamar blue assay; type: cell-based; conditions: human, read-out: LD50
[2] = biological target: T1, Membrane-bound ghrelin O-acyltransferase MBOAT4 (Mus musculus) (UniProt P0C7A3); experiment: Inhibition of mouse GOAT expressed in HEK293FT cells co-expressing pre-proghrelin assessed as reduction in ghrelin octanoylation up to 1 uM incubated for 24 hrs by ELISA; type: cell-based
T1 sequence (whole entry): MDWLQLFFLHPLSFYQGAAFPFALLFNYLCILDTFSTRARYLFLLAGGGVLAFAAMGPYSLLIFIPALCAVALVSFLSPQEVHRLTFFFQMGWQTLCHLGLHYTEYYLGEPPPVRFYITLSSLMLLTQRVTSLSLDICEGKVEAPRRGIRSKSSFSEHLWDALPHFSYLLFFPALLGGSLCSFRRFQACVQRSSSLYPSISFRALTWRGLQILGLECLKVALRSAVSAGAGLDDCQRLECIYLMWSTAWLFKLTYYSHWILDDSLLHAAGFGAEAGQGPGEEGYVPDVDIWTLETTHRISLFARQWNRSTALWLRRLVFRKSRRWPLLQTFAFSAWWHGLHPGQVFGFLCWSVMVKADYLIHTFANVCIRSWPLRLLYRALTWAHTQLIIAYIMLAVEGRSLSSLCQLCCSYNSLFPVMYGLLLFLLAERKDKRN

SMILES	CC50 at 24 h [1] [µM]	inhibition [2]
COC(=O)[C@]12CCC(C)(C)C[C@H]1[C@H]1C(=O)C=C3[C@@]4(C)C=C(C#N)C(=O)C(C)(C)[C@@H]4CC[C@@]3(C)[C@]1(C)CC2 [BARDOXOLONE METHYL]	≥ 10	–
CC1(C)CC[C@]2(C(=O)O)CC[C@]3(C)[C@H](C(=O)C=C4[C@@]5(C)C=C(C#N)C(=O)C(C)(C)[C@@H]5CC[C@]43C)[C@@H]2C1	–	inactive
CCNC(=O)[C@]12CCC(C)(C)C[C@H]1[C@H]1C(=O)C=C3[C@@]4(C)C=C(C#N)C(=O)C(C)(C)[C@@H]4CC[C@@]3(C)[C@]1(C)CC2	≥ 10	–

Reference: ChEMBL document CHEMBL4482308, “Ghrelin o-acyltransferase inhibitors” (2017)
